Numbers after ± are expanded uncertainties.
Assay: mn = molality of the nth substance listed, in mol/kg
Details: 101.3 kPa, Liquid; for speed of sound: Pulse-echo method

[O-][Cl+3]([O-])([O-])[O-].[O-][Cl+3]([O-])([O-])[O-].[Zn+2] [zinc perchlorate] + CN(C)C=O
mass density (283.15 K, m1 = 0.03554): 965.795 ± 0.58 kg/m3
mass density (283.15 K, m1 = 0.04966): 968.825 ± 0.58 kg/m3
mass density (283.15 K, m1 = 0.05952): 970.955 ± 0.58 kg/m3
mass density (283.15 K, m1 = 0.06946): 973.095 ± 0.58 kg/m3
mass density (283.15 K, m1 = 0.1039): 980.554 ± 0.58 kg/m3
mass density (283.15 K, m1 = 0.1369): 987.781 ± 0.58 kg/m3
mass density (283.15 K, m1 = 0.17): 995.118 ± 0.58 kg/m3
mass density (283.15 K, m1 = 0.2038): 1002.65 ± 0.58 kg/m3
mass density (283.15 K, m1 = 0.2374): 1010.26 ± 0.59 kg/m3
mass density (283.15 K, m1 = 0.2701): 1017.77 ± 0.6 kg/m3
mass density (283.15 K, m1 = 0.3002): 1024.72 ± 0.61 kg/m3
mass density (283.15 K, m1 = 0.3314): 1032.04 ± 0.61 kg/m3
mass density (293.15 K, m1 = 0.03554): 956.309 ± 0.59 kg/m3
mass density (293.15 K, m1 = 0.04966): 959.347 ± 0.58 kg/m3
mass density (293.15 K, m1 = 0.05952): 961.484 ± 0.58 kg/m3
mass density (293.15 K, m1 = 0.06946): 963.626 ± 0.58 kg/m3
mass density (293.15 K, m1 = 0.1039): 971.105 ± 0.58 kg/m3
mass density (293.15 K, m1 = 0.1369): 978.348 ± 0.58 kg/m3
mass density (293.15 K, m1 = 0.17): 985.7 ± 0.58 kg/m3
mass density (293.15 K, m1 = 0.2038): 993.242 ± 0.58 kg/m3
mass density (293.15 K, m1 = 0.2374): 1000.87 ± 0.58 kg/m3
mass density (293.15 K, m1 = 0.2701): 1008.39 ± 0.59 kg/m3
mass density (293.15 K, m1 = 0.3002): 1015.35 ± 0.6 kg/m3
mass density (293.15 K, m1 = 0.3314): 1022.68 ± 0.6 kg/m3
speed of sound (298.15 K, m1 = 0.03554): 1459.9 ± 1.4 m/s
speed of sound (298.15 K, m1 = 0.05952): 1461.7 ± 1.4 m/s
speed of sound (298.15 K, m1 = 0.06946): 1462.5 ± 1.5 m/s
speed of sound (298.15 K, m1 = 0.1039): 1465 ± 1.5 m/s
speed of sound (298.15 K, m1 = 0.1369): 1467.5 ± 1.5 m/s
speed of sound (298.15 K, m1 = 0.17): 1469.6 ± 1.5 m/s
speed of sound (298.15 K, m1 = 0.2038): 1472.1 ± 1.5 m/s
speed of sound (298.15 K, m1 = 0.2374): 1474.7 ± 1.5 m/s
speed of sound (298.15 K, m1 = 0.2701): 1477.2 ± 1.5 m/s
speed of sound (298.15 K, m1 = 0.3002): 1479.7 ± 1.5 m/s
speed of sound (298.15 K, m1 = 0.3314): 1482.1 ± 1.5 m/s
mass density (298.15 K, m1 = 0.03554): 951.555 ± 0.59 kg/m3
mass density (298.15 K, m1 = 0.04966): 954.6 ± 0.59 kg/m3
mass density (298.15 K, m1 = 0.05952): 956.74 ± 0.59 kg/m3
mass density (298.15 K, m1 = 0.06946): 958.885 ± 0.58 kg/m3
mass density (298.15 K, m1 = 0.1039): 966.376 ± 0.58 kg/m3
mass density (298.15 K, m1 = 0.1369): 973.626 ± 0.58 kg/m3
mass density (298.15 K, m1 = 0.17): 980.987 ± 0.58 kg/m3
mass density (298.15 K, m1 = 0.2038): 988.537 ± 0.58 kg/m3
mass density (298.15 K, m1 = 0.2374): 996.17 ± 0.58 kg/m3
mass density (298.15 K, m1 = 0.2701): 1003.7 ± 0.58 kg/m3
mass density (298.15 K, m1 = 0.3002): 1010.66 ± 0.59 kg/m3
mass density (298.15 K, m1 = 0.3314): 1018.01 ± 0.6 kg/m3
mass density (303.15 K, m1 = 0.03554): 946.8 ± 0.59 kg/m3
mass density (303.15 K, m1 = 0.04966): 949.85 ± 0.59 kg/m3
mass density (303.15 K, m1 = 0.05952): 951.99 ± 0.59 kg/m3
mass density (303.15 K, m1 = 0.06946): 954.139 ± 0.59 kg/m3
mass density (303.15 K, m1 = 0.1039): 961.642 ± 0.58 kg/m3
mass density (303.15 K, m1 = 0.1369): 968.9 ± 0.58 kg/m3
mass density (303.15 K, m1 = 0.17): 976.267 ± 0.58 kg/m3
mass density (303.15 K, m1 = 0.2038): 983.828 ± 0.58 kg/m3
mass density (303.15 K, m1 = 0.2374): 991.474 ± 0.58 kg/m3
mass density (303.15 K, m1 = 0.2701): 999.008 ± 0.58 kg/m3
mass density (303.15 K, m1 = 0.3002): 1005.98 ± 0.59 kg/m3
mass density (303.15 K, m1 = 0.3314): 1013.33 ± 0.59 kg/m3
mass density (313.15 K, m1 = 0.03554): 937.255 ± 0.6 kg/m3
mass density (313.15 K, m1 = 0.04966): 940.315 ± 0.59 kg/m3
mass density (313.15 K, m1 = 0.05952): 942.46 ± 0.59 kg/m3
mass density (313.15 K, m1 = 0.06946): 944.619 ± 0.59 kg/m3
mass density (313.15 K, m1 = 0.1039): 952.143 ± 0.59 kg/m3
mass density (313.15 K, m1 = 0.1369): 959.426 ± 0.59 kg/m3
mass density (313.15 K, m1 = 0.17): 966.813 ± 0.58 kg/m3
mass density (313.15 K, m1 = 0.2038): 974.394 ± 0.58 kg/m3
mass density (313.15 K, m1 = 0.2374): 982.063 ± 0.58 kg/m3
mass density (313.15 K, m1 = 0.2701): 989.616 ± 0.58 kg/m3
mass density (313.15 K, m1 = 0.3002): 996.605 ± 0.58 kg/m3
mass density (313.15 K, m1 = 0.3314): 1003.97 ± 0.59 kg/m3
mass density (323.15 K, m1 = 0.03554): 927.66 ± 0.6 kg/m3
mass density (323.15 K, m1 = 0.04966): 930.737 ± 0.6 kg/m3
mass density (323.15 K, m1 = 0.05952): 932.889 ± 0.6 kg/m3
mass density (323.15 K, m1 = 0.06946): 935.058 ± 0.6 kg/m3
mass density (323.15 K, m1 = 0.1039): 942.607 ± 0.59 kg/m3
mass density (323.15 K, m1 = 0.1369): 949.918 ± 0.59 kg/m3
mass density (323.15 K, m1 = 0.17): 957.333 ± 0.59 kg/m3
mass density (323.15 K, m1 = 0.2038): 964.934 ± 0.59 kg/m3
mass density (323.15 K, m1 = 0.2374): 972.635 ± 0.58 kg/m3
mass density (323.15 K, m1 = 0.2701): 980.208 ± 0.58 kg/m3
mass density (323.15 K, m1 = 0.3002): 987.212 ± 0.58 kg/m3
mass density (323.15 K, m1 = 0.3314): 994.605 ± 0.58 kg/m3
mass density (333.15 K, m1 = 0.03554): 918.015 ± 0.61 kg/m3
mass density (333.15 K, m1 = 0.04966): 921.108 ± 0.61 kg/m3
mass density (333.15 K, m1 = 0.05952): 923.268 ± 0.61 kg/m3
mass density (333.15 K, m1 = 0.06946): 925.449 ± 0.6 kg/m3
mass density (333.15 K, m1 = 0.1039): 933.036 ± 0.6 kg/m3
mass density (333.15 K, m1 = 0.1369): 940.371 ± 0.6 kg/m3
mass density (333.15 K, m1 = 0.17): 947.816 ± 0.59 kg/m3
mass density (333.15 K, m1 = 0.2038): 955.438 ± 0.59 kg/m3
mass density (333.15 K, m1 = 0.2374): 963.178 ± 0.59 kg/m3
mass density (333.15 K, m1 = 0.2701): 970.777 ± 0.59 kg/m3
mass density (333.15 K, m1 = 0.3002): 977.794 ± 0.59 kg/m3
mass density (333.15 K, m1 = 0.3314): 985.215 ± 0.58 kg/m3

— the NIST ThermoML archive (doi:10.1021/je049721u)
